This note sets out measurements from patent publication US20260062422A1 (Halda Therapeutics OpCo, Inc., priority 2022, published 2026).

One may read the GI50 as the concentration that inhibits growth by half.

The structures appear in SMILES notation.

In one test the test system is T47D cells. Briefly: Cellular growth inhibition assay for T47D cells, CellTiter-Glo. Format: cell-based, human. The settings on record: 72 hours treatment, CellTiter-Glo 2.0 cell viability. Put shortly: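 Luminescence from CellTiter-Glo 2.0 after 72 h of compound exposure gives the viability signal. Cells grew in insulin-supplemented (0.2 units/mL) DMEM with 10% FBS and were treated one day after seeding at 0.5% DMSO. GI50 values come from four-parameter nonlinear regression.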

Test [1] relates to T-Rex 293 cell line SC3 cells lacking increased expression of androgen receptor protein. Briefly: Cellular growth inhibition, T-Rex 293 SC3 cells without doxycycline, CellTiter-Glo. It counts as cell-based. The conditions noted are these: T-Rex 293 SC3 cells not exposed to doxycycline, CellTiter-Glo 2.0. Put shortly:
(§1)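 SC3 is a T-Rex 293 clone stably transfected with wild-type androgen receptor in pcDNA4/TO, inducible by 10 ng/mL doxycycline. Cells were grown in phenol red-free DMEM with 10% charcoal-dextran FBS, with or without doxycycline, dosed 24 h after seeding (0.5% DMSO) for 72 h. Viability was read by CellTiter-Glo 2.0 luminescence and GI50 obtained from four-parameter fits.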
For orientation: Cellular ATP, detected with luciferase, serves as a proxy for viable cell number.

Another test has as its system VCaP cells. Briefly: Cellular growth inhibition assay for VCaP cells, CellTiter-Glo. It counts as cell-based, human. The settings on record: 72 hours treatment, CellTiter-Glo 2.0. Put shortly: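 GI50 values come from four-parameter curve fits of luminescence data normalized to a zero baseline. Compound, in medium with 0.5% DMSO, was added one day after plating and left for 72 h before CellTiter-Glo 2.0 addition.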

The subject of test [2] is T-Rex 293 cell line SC3 cells having increased expression of androgen receptor protein due to exposure to doxycycline. Briefly: Cellular growth inhibition, T-Rex 293 SC3 cells with doxycycline (androgen receptor induced), CellTiter-Glo. It counts as cell-based. The conditions noted are these: T-Rex 293 SC3 cells with 10 ng/mL doxycycline (increased androgen receptor expression). Put shortly: as §1

As to `Cc1sc2c(c1C)C(c1ccc([C@H]3C[C@@H]([C@H]4CCN(c5ncc(C(=O)N[C@H]6C(C)(C)[C@H](Oc7ccc(C#N)c(Cl)c7)C6(C)C)cn5)C4)C3)cc1)=N[C@@H](Cc1ncco1)c1nnc(C)n1-2` [Compound I-415], the GI50 with T47D cells (Homo sapiens, T47D, 72 h) is greater than 3000 nM; in test [1] (72 h), greater than 3000 nM; in the test on VCaP cells (Homo sapiens, VCaP, 72 h) it was greater than 3000 nM; in test [2] (72 h), greater than 3000 nM.

For `Cc1sc2c(c1C)C(c1ccc([C@H]3C[C@H]([C@H]4CCN(c5ncc(C(=O)N[C@H]6C(C)(C)[C@H](Oc7ccc(C#N)c(Cl)c7)C6(C)C)cn5)C4)C3)cc1)=N[C@@H](Cc1ncco1)c1nnc(C)n1-2` [Compound I-416], the GI50 in the test on T47D cells (Homo sapiens, T47D, 72 h) is less than 500 nM; in test [1] (72 h), greater than 3000 nM; with VCaP cells (Homo sapiens, VCaP, 72 h), less than 500 nM; in test [2] (72 h), less than 500 nM.

Regarding `Cc1sc2c(c1C)C(c1ccc([C@H]3C[C@@H]([C@H]4CCN(c5ncc(C(=O)N[C@H]6C(C)(C)[C@H](Oc7ccc(C#N)c(Cl)c7)C6(C)C)cn5)C4)C3)cc1)=N[C@H](Cc1ncco1)c1nnc(C)n1-2` [Compound I-417], the GI50 in the test on T47D cells (Homo sapiens, T47D, 72 h) was less than 500 nM; in test [1] (72 h) it was less than 500 nM; in the test on VCaP cells (Homo sapiens, VCaP, 72 h), less than 500 nM; in test [2] (72 h), less than 500 nM.

Take `Cc1sc2c(c1C)C(c1ccc([C@H]3C[C@H]([C@H]4CCN(c5ncc(C(=O)N[C@H]6C(C)(C)[C@H](Oc7ccc(C#N)c(Cl)c7)C6(C)C)cn5)C4)C3)cc1)=N[C@H](Cc1ncco1)c1nnc(C)n1-2` [Compound I-418]: the GI50 is less than 500 nM in the test with T47D cells (Homo sapiens, T47D, 72 h); less than 500 nM in test [1] (72 h); less than 500 nM in the test on VCaP cells (Homo sapiens, VCaP, 72 h); less than 500 nM in test [2] (72 h).

Turning to `Cc1sc2c(c1C)C(c1ccc([C@H]3C[C@@H]([C@@H]4CCCN(c5ncc(C(=O)N[C@H]6C(C)(C)[C@H](Oc7ccc(C#N)c(Cl)c7)C6(C)C)cn5)C4)C3)cc1)=N[C@@H](Cc1ncco1)c1nnc(C)n1-2` [Compound I-419], the GI50 with T47D cells (Homo sapiens, T47D, 72 h) was greater than 3000 nM; in test [1] (72 h), greater than 3000 nM; in the test on VCaP cells (Homo sapiens, VCaP, 72 h), greater than 3000 nM; in test [2] (72 h) it was greater than 3000 nM.

With `Cc1sc2c(c1C)C(c1ccc([C@H]3C[C@H]([C@H]4CCCN(c5ncc(C(=O)N[C@H]6C(C)(C)[C@H](Oc7ccc(C#N)c(Cl)c7)C6(C)C)cn5)C4)C3)cc1)=N[C@@H](Cc1ncco1)c1nnc(C)n1-2` [Compound I-420], the GI50 in the test with T47D cells (Homo sapiens, T47D, 72 h) was greater than 3000 nM; in test [1] (72 h) it was greater than 3000 nM; in the test on VCaP cells (Homo sapiens, VCaP, 72 h), greater than 3000 nM; in test [2] (72 h), greater than 3000 nM.

With `Cc1sc2c(c1C)C(c1ccc([C@H]3C[C@@H]([C@H]4CCCN(c5ncc(C(=O)N[C@H]6C(C)(C)[C@H](Oc7ccc(C#N)c(Cl)c7)C6(C)C)cn5)C4)C3)cc1)=N[C@@H](Cc1ncco1)c1nnc(C)n1-2` [Compound I-421], the GI50 in the test on T47D cells (Homo sapiens, T47D, 72 h) was less than 500 nM; in test [1] (72 h), greater than 3000 nM; with VCaP cells (Homo sapiens, VCaP, 72 h), less than 500 nM; in test [2] (72 h), less than 500 nM.

For the molecule `Cc1sc2c(c1C)C(c1ccc([C@H]3C[C@H]([C@@H]4CCCN(c5ncc(C(=O)N[C@H]6C(C)(C)[C@H](Oc7ccc(C#N)c(Cl)c7)C6(C)C)cn5)C4)C3)cc1)=N[C@@H](Cc1ncco1)c1nnc(C)n1-2` [Compound I-422], the GI50 with T47D cells (Homo sapiens, T47D, 72 h) was less than 500 nM; in test [1] (72 h), greater than 3000 nM; in the test with VCaP cells (Homo sapiens, VCaP, 72 h), less than 500 nM; in test [2] (72 h) it was less than 500 nM.

In the case of `Cc1sc2c(c1C)C(c1ccc([C@H]3C[C@H]([C@@H]4CCCN(c5ncc(C(=O)N[C@H]6C(C)(C)[C@H](Oc7ccc(C#N)c(Cl)c7)C6(C)C)cn5)C4)C3)cc1)=N[C@@H](Cc1ncco1)c1nnc(C)n1-2` [Compound I-423], the GI50 in the test with T47D cells is 500 to 1500 nM; in test [1] (72 hours), greater than 3000 nM; with VCaP cells, less than 500 nM; in test [2] (72 hours), less than 500 nM.

In the case of `Cc1sc2c(c1C)C(c1ccc(CCN3CC[C@]4(C3)CN(c3ncc(C(=O)N[C@H]5C(C)(C)[C@H](Oc6ccc(C#N)c(Cl)c6)C5(C)C)cn3)CC(F)(F)C4)cc1)=N[C@@H](Cc1ncco1)c1nnc(C)n1-2` [Compound I-424], the GI50 in the test on T47D cells (Homo sapiens, T47D, 72 h) is less than 500 nM; in test [1] (72 h), greater than 3000 nM; with VCaP cells (Homo sapiens, VCaP, 72 h), less than 500 nM; in test [2] (72 h), less than 500 nM.

For the molecule `Cc1sc2c(c1C)C(c1ccc(CCN3CC[C@@]4(C3)CN(c3ncc(C(=O)N[C@H]5C(C)(C)[C@H](Oc6ccc(C#N)c(Cl)c6)C5(C)C)cn3)CC(F)(F)C4)cc1)=N[C@@H](Cc1ncco1)c1nnc(C)n1-2` [Compound I-425], the GI50 in the test on T47D cells (Homo sapiens, T47D, 72 h) is less than 500 nM; in test [1] (72 h), greater than 3000 nM; with VCaP cells (Homo sapiens, VCaP, 72 h), less than 500 nM; in test [2] (72 h), less than 500 nM.
